# According to patent publication US12035716B2, “Treatment for seeds disinfection” (VILMORIN & CIE, priority 2013, dated 2024):
# Read-outs that look alike come from different tables or passages of the source.
# System: CGMMV
# Experimental: Samples of two commercial cucumber seed lots naturally infected by CGMMV in the production field were treated by standard disinfection or by vacuum infiltration methods. All treatments were done on 1500 seed in 300 ml solution for 40 minutes, followed by 40 minutes wash under running water. For the standard disinfection we used 2.5% Na-Dichloroisocyanurate solution and for the vacuum infiltration we used a solution containing 1.5% Na-Dichloroisocyanurate. The vacuum/de vacuum cycles were applied gradually starting at 500 mbar and increased by 100 mbar each cycle up to the maximum of 985 mbar. Then we continued vacuum/de-vacuum cycles at maximum vacuum pressure of 985 mbar for a total of 30 cycles. At the end of the treatment the floating seeds were discarded and the heavy fraction was collected, washed and dried for testing.
# CGMMV was tested by ELISA assay according to method 7-026 of the international rules for seed testing annex to chapter 7: seed health testing methods; International Seed Testing Association, Zurich, Switzerland, 2010. The germination test was performed on petri dishes (TOP) at 24 C incubator and root protrusion was counted at 4 days after seeding (TOP at 4 d).
# [1] = seed lot A, VI disinfection 1.5%, heavy fraction
# [2] = seed lot A, standard disinfection 2.5%
# [3] = seed lot B, VI disinfection 1.5%, heavy fraction
# [4] = seed lot B, standard disinfection 2.5%
structure (smiles),measurement,setting,value
O=c1nc([O-])n(Cl)c(=O)n1Cl.[Na+] [Na-Dichloroisocyanurate],"ELISA 10 replicates results, Positive/total",[1],0/10
same,Remarks (seed health),[1],Clean
same,"ELISA 10 replicates results, Average count","seed lot A, VI disinfection 1.5%, heavy fraction, cut-off 0.148, untreated 0.693",0.072
same,"ELISA 10 replicates results, Positive/total",[2],9/10
same,Remarks (seed health),[2],Contaminated
same,"ELISA 10 replicates results, Average count","seed lot A, standard disinfection 2.5%, cut-off 0.174, untreated 0.693",0.238
same,"ELISA 10 replicates results, Positive/total",[3],0/10
same,Remarks (seed health),[3],Clean
same,"ELISA 10 replicates results, Average count","seed lot B, VI disinfection 1.5%, heavy fraction, cut-off 0.148, untreated 0.737",0.075
same,"ELISA 10 replicates results, Positive/total",[4],4/10
same,Remarks (seed health),[4],Contaminated
same,"ELISA 10 replicates results, Average count","seed lot B, standard disinfection 2.5%, cut-off 0.156, untreated 0.737",0.177
